Data published in patent US7812042B2, “Pharmaceutical compositions and therapeutic applications for the use of a novel vitamin B12 derivative, N-acetyl-L-cysteinylcobalamin” (priority 2006, dated 2010).
Values joined by “and” are separate entries in the source; they are usually repeats but may differ in a detail not shown here. Identical values can stand only once.

Experiments:
[1] = Decomposition of thiolatocobalamins in PBS at 37° C. monitored by UV/Vis spectrophotometry; format: physicochemical; settings: decomposition in PBS at 37° C.
Description: The decomposition of GSCbl, NACCbl, and HcyCbl in PBS at 37° C. was monitored by UV/Vis spectrophotometry.

[2] = test system: SK-HEP-1 cells; test: Protection of endothelial cells from homocysteine-induced cell death (MTS assay, absorbance at 490 nm; includes comparison of NACCbl, NAC, cyanocobalamin+NAC, free thiols, other cobalamins, folate); format: cell-based, Human; settings: for Absorbance at 490 nm (n = 6): replicates Y1-Y6
Description: The effect of a constant concentration of NACCbl and GSCbl to protect cells against variable concentrations of homocysteine was assessed. […] Cell viability was determined by MTS® assay. Data shown in FIG. 4 are representative of means ±SE of 6 independent samples. FIG. 4 illustrates that NACCbl (▪) and GSCbl (▴) protect endothelial cells from the effect of homocysteine. […] Cell viability was determined by MTS® assay. […] There was a decrease in protection as homocysteine concentration increased, but there was still ˜60% survival at 50 μM homocysteine.
The data was normalized (log 2 and log 10) as shown in FIGS. 16 and 17 and Tables 16 and 17, respectively, below.

[3] = test system: SK-HEP-1 cells; test: Protection of endothelial cells from H2O2-induced cell death (MTS assay); format: cell-based, Human
Description: The effect of increasing concentrations of NACCbl and GSCbl to protect endothelial cells from the effect of H2O2 was assessed. […] Cell viability was determined by MTS® assay. […] Cell viability was determined by MTS® assay. […] Cell viability was determined by MTS® assay.

[4] = test system: SK-HEP-1 cells; test: Protection from apoptosis induced by homocysteine (Caspase-3 activity); format: cell-based, Human; settings: 30 μM pre-treatment two hours, then 30 μM homocysteine two hours
Description: Caspase 3 is activated when cells undergo apoptosis. Caspase-3 assay is a standard for apoptosis assay. Homocysteine is a known inducer of apoptosis. Cells were cultured in 96-well plates for 24 hours and then treated with reagents under test conditions. Cytotoxic agents, H2O2 and etoposide were added to negative control wells. The assay was performed according to the manufacturer's protocol, as follows: Cells were re-suspended in 100 μl of clear media and 50 μl of Caspase-3 substrate solution was immediately added to each test well. […] Cell viability was determined by MTS® assay. […] Cell viability was determined by MTS® assay.

[5] = 2 hours pre-incubation, then 25 μM H2O2 24 hours

## CC(=O)NC(C[S-])C(=O)O.CC1=C2N=C(C=C3N=C(C(C)=C4[N-]C(C(CC(N)=O)C4(C)CCC(=O)NCC(C)OP(=O)([O-])OC4C(CO)OC(n5cnc6cc(C)c(C)cc65)C4O)C4(C)N=C1C(CCC(N)=O)C4(C)CC(N)=O)C(CCC(N)=O)C3(C)C)C(CCC(N)=O)C2(C)CC(N)=O.[Co+3] [NACCbl, N-acetyl-L-cysteinylcobalamin]
[1]
  t1/2: No decomposition within 20 hours
[2]; 30 μM cobalamin pre-incubation two hours, then 50 μM homocysteine two hours
  survival: ~60%
[2]; 2 hours pre-incubation, then 30 μM homocysteine 24 hours
  pre-incubation concentration that protected cells from homocysteine-induced cell death: ≥ 2.0 µM
[2]; Conc. Hcy 0.000, NACCbl 30 μM, NAC 75 μM
  Absorbance at 490 nm, Mean (n = 6): 2.761
[2]; Conc. Hcy 1.780 (μM), NACCbl 30 μM, NAC 75 μM
  Absorbance at 490 nm, Mean (n = 6): 2.673
[2]; Conc. Hcy 3.125 (μM), NACCbl 30 μM, NAC 75 μM
  Absorbance at 490 nm, Mean (n = 6): 2.404
[2]; Conc. Hcy 6.250 (μM), NACCbl 30 μM, NAC 75 μM
  Absorbance at 490 nm, Mean (n = 6): 2.273
[2]; Conc. Hcy 12.500 (μM), NACCbl 30 μM, NAC 75 μM
  Absorbance at 490 nm, Mean (n = 6): 2.142
[2]; Conc. Hcy 25.000 (μM), NACCbl 30 μM, NAC 75 μM
  Absorbance at 490 nm, Mean (n = 6): 1.954
[2]; Conc. Hcy 50.000 (μM), NACCbl 30 μM, NAC 75 μM
  Absorbance at 490 nm, Mean (n = 6): 1.786
[2]; Conc. Hcy 100.000 (μM), NACCbl 30 μM, NAC 75 μM
  Absorbance at 490 nm, Mean (n = 6): 1.685
[2]; Conc. Hcy 200.000 (μM), NACCbl 30 μM, NAC 75 μM
  Absorbance at 490 nm, Mean (n = 6): 1.393
[2]; Conc. of Hcy 0.000, NACCbl 30 μM, NAC 75 μM
  Absorbance at 490 nm (n = 6): 2.885 and 2.698 and 2.821 and 2.771 and 2.691 and 2.700
[2]; Conc. of Hcy 1.780, NACCbl 30 μM, NAC 75 μM
  Absorbance at 490 nm (n = 6): 2.647 and 2.551 and 2.789 and 2.890 and 2.549 and 2.611
[2]; Conc. of Hcy 3.125, NACCbl 30 μM
  Absorbance at 490 nm (n = 6): 2.453 and 2.338 and 2.360 and 2.317 and 2.418 and 2.535
[2]; Conc. of Hcy 6.250, NACCbl 30 μM, NAC 75 μM
  Absorbance at 490 nm (n = 6): 2.410 and 2.400 and 2.322 and 2.201 and 2.115 and 2.187
[2]; Conc. of Hcy 12.500, NACCbl 30 μM, NAC 75 μM
  Absorbance at 490 nm (n = 6): 2.210 and 2.110 and 2.045 and 2.065 and 2.101 and 2.324
[2]; Conc. of Hcy 25.000, NACCbl 30 μM, NAC 75 μM
  Absorbance at 490 nm (n = 6): 2.100 and 2.190 and 1.879 and 1.937 and 1.779 and 1.837
[2]; Conc. of Hcy 50.000, NACCbl 30 μM, NAC 75 μM
  Absorbance at 490 nm (n = 6): 1.678 and 1.832 and 1.881 and 1.730 and 1.740 and 1.855
[2]; Conc. of Hcy 100.000, NACCbl 30 μM, NAC 75 μM
  Absorbance at 490 nm (n = 6): 1.678 and 1.592 and 1.694 and 1.773 and 1.732 and 1.639
[2]; Conc. of Hcy 200.000, NACCbl 30 μM, NAC 75 μM
  Absorbance at 490 nm (n = 6): 1.378 and 1.167 and 1.330 and 1.456 and 1.491 and 1.537
[2]; Hcy 30 μM, NAC 45, GSH 100, NACCbl 12.5, GSCbl 15 μM, with or without folate 25 μM
  protection against homocysteine-induced damage compared with free thiols: superior to the free thiols
[2]; concentrations below 12.5 μM, 30 μM homocysteine 24 hours
  protection compared with GSCbl (p<0.001): significantly greater than that provided by GSCbl
[2]; variable Hcy concentration, NACCbl 30 μM
  prevention of cell death compared with NAC and cyanocobalamin+NAC: superior to either NAC (75 μM) alone or in combination with CNCbl
[2]; ≧12.5 μM NACCbl 2 hours, then 30 μM homocysteine 24 hours
  survival: 80%
[3]; 25 μM H2O2 24 hours
  protection by NACCbl compared with GSCbl: no difference
[3]; [5]
  concentration required to achieve >80% survival: 100 µM
  pre-incubation concentration that protected cells from H2O2-induced cell death: ≥ 2.0 µM
[4]
  protection against apoptosis induced by homocysteine: total protection
